Tested on: IKZF1, ASS1 and SALL4 recruitment to CRBN
Test: Recruitment assessment: recruitment of any tested substrate from among IKZF1, ASS1 and SALL4
Format: cell-based
Conditions: any tested substrate at any tested compound concentration
Method: In this experimental set-up, cells were transfected with a construct encoding a CRBN-fusion protein and another one encoding a substrate-fusion protein. Test compound activity was assessed with increasing concentrations of test compounds (dose-response studies) to monitor the ability to promote CRBN-ligand-induced protein interaction.
Full size proteins were fused for each of the target proteins tested, except in the case of IKZF1 where isoform 7 was used. For the study, the following were used: IKZF1 recruitment: pSEL-CRBN+pMG1-IKZF1(isoform 7); ASS1 recruitment: pSEL-CRBN+pMG1-ASS1. SALL4 recruitment: pSEL-SALL4+pMG1-CRBN. […] Luciferase activity was measured 24 hours after test compound treatment using the Luciferase Assay System kit (PROMEGA, Madison, Wis.) with an Ensight plate reader (PERKIN ELMER LIFE SCIENCES, Waltham, Mass.). Data points depicted fold induction of the average luciferase activity of triplicate samples from EPO+test compound treated cells versus EPO only treated cells. Error bars represent standard deviations. Curves were fit using 4-parameter nonlinear regression in […] PRISM software.

Row | SMILES | Recruitment Assessment
1 | O=C1c2c(F)c(F)c(F)c(F)c2C(=O)N1c1ccc(F)cc1F [C34491, 2-(2,4-difluorophenyl)-4,5,6,7-tetrafluoro-isoindoline-1,3-dione] | FALSE
2 | Nc1cccc2c(=O)n(C3CCC(=O)NC3=O)nnc12 (centres unmarked) [C35833, 3-(8-amino-4-oxo-1,2,3-benzotriazin-3-yl)piperidine-2,6-dione] | FALSE
3 | COc1cnccc1C(=O)Nc1ccc2c(c1)=NC(=O)N=2 [C36124, 3-methoxy-N-(2-oxobenzimidazol-5-yl)pyridine-4-carboxamide] | FALSE
4 | O=C1CCc2cc(C(=O)N3CCCc4ccccc43)cnc2N1 [C36126, 6-(3,4-dihydro-2H-quinoline-1-carbonyl)-3,4-dihydro-1H-1,8-naphthyridin-2-one] | FALSE
5 | O=C1CCc2cc(C(=O)N3CCc4cccnc43)cnc2N1 [C36128, 6-(2,3-dihydropyrrolo[2,3-b]pyridine-1-carbonyl)-3,4-dihydro-1H-1,8-naphthyridin-2-one] | FALSE
6 | Cc1c(N)cccc1C(=O)NC1CCC(=O)NC1=O (centres unmarked) [C38930, 3-amino-N-(2,6-dioxo-3-piperidyl)-2-methyl-benzamide] | FALSE
7 | NC(=O)c1ccc2c(c1)C(=O)N(C1CCC(=O)NC1=O)C2 (centres unmarked) [C39772, 2-(2,6-dioxo-3-piperidyl)-3-oxo-isoindoline-5-carboxamide] | FALSE
8 | O=C1CCC(Nc2cnc3ccccc3n2)C(=O)N1 (centres unmarked) [C44292, 3-(quinoxalin-2-ylamino)piperidine-2,6-dione] | FALSE
9 | O=C1CCC(N2Cc3ccc(C(F)(F)F)cc3C2=O)C(=O)N1 (centres unmarked) [C45748, 3-[1-oxo-6-(trifluoromethyl)isoindolin-2-yl]piperidine-2,6-dione] | FALSE
10 | O=C1CCC(N2C(=O)c3ccccc3C2NC(=O)c2ccccc2)C(=O)N1 (centres unmarked) [C46003, N-[2-(2,6-dioxo-3-piperidyl)-3-oxo-isoindolin-1-yl]benzamide] | FALSE
11 | Nc1cccc2c1CN(C1CC(=O)NC(=O)C1)C2=O [C47927, 4-(4-amino-1-oxo-isoindolin-2-yl)piperidine-2,6-dione] | TRUE
12 | Nc1cccc2c1CN(C1CNC(=O)NC1=O)C2=O (centres unmarked) [C47928, 5-(4-amino-1-oxo-isoindolin-2-yl)hexahydropyrimidine-2,4-dione] | FALSE
13 | Nc1cccc2c1CN(C1CCCC(=O)NC1=O)C2=O (centres unmarked) [C47932, 3-(4-amino-1-oxo-isoindolin-2-yl)azepane-2,7-dione] | TRUE
14 | Nc1cccc2c1CCN(C1CCC(=O)NC1=O)C2=O (centres unmarked) [C47933, 3-(5-amino-1-oxo-3,4-dihydroisoquinolin-2-yl)piperidine-2,6-dione] | TRUE
15 | O=C(O)CNc1ccc2c(c1)C(=O)N(C1CCC(=O)NC1=O)C2 (centres unmarked) [C47997, 2-[[2-(2,6-dioxo-3-piperidyl)-3-oxo-isoindolin-5-yl]amino]acetic acid] | FALSE
16 | N#Cc1cccc2c1C(=O)N(C1CCC(=O)NC1=O)C2 (centres unmarked) [C48009, 2-(2,6-dioxo-3-piperidyl)-3-oxo-isoindoline-4-carbonitrile] | FALSE
17 | O=C1CCC(N2Cc3cccc(-c4ccccc4)c3C2=O)C(=O)N1 (centres unmarked) [C48020, 3-(1-oxo-7-phenyl-isoindolin-2-yl)piperidine-2,6-dione] | FALSE
18 | O=C1N=CC(N2C(=O)c3ccccc3C2=O)C(=O)N1 (centres unmarked) [C49278, 2-(2,6-dioxo-5H-pyrimidin-5-yl)isoindoline-1,3-dione] | FALSE
19 | CN(C)CC(=O)Nc1ccc2c(c1)C(=O)N(C1CCC(=O)NC1=O)C2 (centres unmarked) [C49708, 2-(dimethylamino)-N-[2-(2,6-dioxo-3-piperidyl)-3-oxo-isoindolin-5-yl]acetamide] | FALSE
20 | O=C1CCC(N2C(=O)c3ccccc3C2C2=c3ccccc3=NC2)C(=O)N1 (centres unmarked) [C49713, 3-[1-(2H-indol-3-yl)-3-oxo-isoindolin-2-yl]piperidine-2,6-dione] | FALSE
21 | O=C1CCC(N2C(=O)C3CC=CCC3C2=O)C(=O)N1 (centres unmarked) [C51647, 2-(2,6-dioxo-3-piperidyl)-3a,4,7,7a-tetrahydroisoindole-1,3-dione] | FALSE
22 | O=C1CCC(Nc2ncccn2)C(=O)N1 (centres unmarked) [C55468, 3-(pyrimidin-2-ylamino)piperidine-2,6-dione] | FALSE

Row | SMILES | Recruitment Assessment
23 | Nc1cccc2c1CN(C1CCS(=O)(=O)NC1=O)C2=O (centres unmarked) [C55859, 4-(4-Amino-1-oxoisoindolin-2yl)-1,2-thiazinan-3-one 1,1-dioxide] | FALSE
24 | COC1c2ccccc2C(=O)N1C1CCC(=O)NC1=O (centres unmarked) [C56572, 3-(1-methoxy-3-oxo-isoindolin-2-yl)piperidine-2,6-dione] | FALSE
25 | Cc1ccc(NC(=O)NCc2cc(C)c3c(c2)CN(C2CCC(=O)NC2=O)C3=O)cc1Cl (centres unmarked) [C58181, 1-(3-chloro-4-methyl-phenyl)-3-[[2-(2,6-dioxo-3-piperidyl)-7-methyl-1-oxo-isoindolin-5-yl]methyl]urea] | TRUE
26 | O=C1CCC(N2Cn3c(cccc3=O)C2=O)C(=O)N1 (centres unmarked) [C60651, 2-(2,6-dioxo-3-piperidyl)-3H-imidazo[1,5-a]pyridine-1,5-dione] | FALSE
27 | O=C1CCC(N2C(=O)C=C(c3ccccc3)C2=O)C(=O)N1 (centres unmarked) [C64319, 3-(2,5-dioxo-3-phenyl-pyrrol-1-yl)piperidine-2,6-dione] | FALSE
28 | O=C1CCC(N2C(=O)C3=C(CCC3)C2=O)C(=O)N1 (centres unmarked) [C64324, 2-(2,6-dioxo-3-piperidyl)-5,6-dihydro-4H-cyclopenta[c] pyrrole-1,3-dione] | FALSE
29 | O=C1CCC(N2C(=O)CC3(Cc4ccccc4C3)C2=O)C(=O)N1 (centres unmarked) [C64329, 1′-(2,6-dioxo-3-piperidyl)spiro[indane-2,3′-pyrrolidine]-2′,5′-dione] | FALSE
30 | O=C1CCC(N2C(=O)CC(NC(=O)OCc3ccccc3)C2=O)C(=O)N1 (centres unmarked) [C64344, benzyl N-[1-(2,6-dioxo-3-piperidyl)-2,5-dioxo-pyrrolidin-3-yl]carbamate] | FALSE
31 | O=C1CCC(N2C(=O)CC3(CCOCC3)C2=O)C(=O)N1 (centres unmarked) [C64348, 2-(2,6-dioxo-3-piperidyl)-8-oxa-2-azaspiro[4.5]decane-1,3-dione] | FALSE
32 | CN1CCC2(CC1)CC(=O)N(C1CCC(=O)NC1=O)C2=O (centres unmarked) [C64372, 2-(2,6-dioxo-3-piperidyl)-8-methyl-2,8-diazaspiro[4.5]decane-1,3-dione] | FALSE
33 | Cc1nc(N(C)C)cc2c1C(=O)N(C1CCC(=O)NC1=O)C2=O (centres unmarked) [C64376, 6-(dimethylamino)-2-(2,6-dioxo-3-piperidyl)-4-methyl-pyrrolo[3,4-c] pyridine-1,3-dione] | FALSE
34 | NCc1ccc2c(c1)C(=O)N(C1CCC(=O)NC1=O)C2 (centres unmarked) [C66979, 3-[6-(aminomethyl)-1-oxo-isoindolin-2-yl]piperidine-2,6-dione] | FALSE
35 | Cc1cccc2c1C(=O)N(C1CCC(=O)NC1=O)S2(=O)=O (centres unmarked) [C73349, 3-(4-methyl-1,1,3-trioxo-1,2-benzothiazol-2-yl)piperidine-2,6-dione] | FALSE
36 | COc1ccc(Br)c2c1C(=O)N(C1CCC(=O)NC1=O)C2 (centres unmarked) [C74668, 3-(4-bromo-7-methoxy-1-oxo-isoindolin-2-yl)piperidine-2,6-dione] | FALSE
37 | Cc1cccc2c1S(=O)(=O)N(C1CCC(=O)NC1=O)C2=O (centres unmarked) [C75688, 3-(7-methyl-1,1,3-trioxo-1,2-benzothiazol-2-yl)piperidine-2,6-dione] | FALSE
38 | Cl.NC1Cc2ccccc2C1=O (centres unmarked) [C75987, 2-aminoindan-1-one; hydrochloride] | FALSE
39 | O=C1CCC(N2Cc3cc(Nc4ncnc5sccc45)ccc3C2=O)C(=O)N1 (centres unmarked) [C80370, 3-[1-oxo-5-(thieno[2,3-d]pyrimidin-4-ylamino)isoindolin-2-yl] piperidine-2,6-dione] | FALSE
40 | O=C1CCC(N2Cc3cc(Nc4ncnc5ccccc45)ccc3C2=O)C(=O)N1 (centres unmarked) [C80373, 3-[-oxo-5-(quinazolin-4-ylamino)isoindolin-2-yl]piperidine-2,6-dione] | TRUE
41 | Cn1ncc2c(Nc3ccc4c(c3)CN(C3CCC(=O)NC3=O)C4=O)ncnc21 (centres unmarked) [C80374, 3-[5-[(1-methylpyrazolo[3,4-d]pyrimidin-4-yl)amino]-1-oxo-isoindolin-2-yl]piperidine-2,6-dione] | TRUE
42 | Nc1nccc(Nc2ccc3c(c2)CN(C2CCC(=O)NC2=O)C3=O)n1 (centres unmarked) [C80375, 3-[5-[(2-aminopyrimidm-4-yl)amino]-1-oxo-isoindolin-2-yl] piperidine-2,6-dione] | FALSE
43 | Nc1nc(Nc2ccc3c(c2)CN(C2CCC(=O)NC2=O)C3=O)nc2sccc12 (centres unmarked) [C80379, 3-[5-[(4-aminothieno[2,3-d]pyrimidin-2-yl)amino]-1-oxo-isoindolin-2-yl]piperidine-2,6-dione] | TRUE
44 | CC(=O)O.O=C1CCC(N2Cc3ccc(Nc4ncnc5ccccc45)cc3C2=O)C(=O)N1 (centres unmarked) [C80382 acetic acid salt, acetic acid; 3-[1-oxo-6-(quinazolin-4-ylamino)isoindolin-2-yl]piperidine-2,6-dione] | FALSE

— patent US20230111853A1, “COMPOUNDS MODULATING PROTEIN RECRUITMENT AND/OR DEGRADATION” (Orionis Biosciences, Inc., priority 2019, published 2023)
